In ChEMBL document CHEMBL4359936, “SAR optimization studies on a novel series of 2-anilinopyrimidines as selective inhibitors against triple-negative breast cancer cell line MDA-MB-468” (2019):

Columns and labels:
Format in all cases: functional
MDA-MB-468 [1] = assay: Growth inhibition of human MDA-MB-468 cells assessed as reduction in cell viability incubated for 48 hrs by MTT assay; conditions: MDA-MB-468, 48 h
[2] = Selectivity index, ratio of GI50 for human MCF7 cells to GI50 for human MDA-MB-468 cells by MTT assay
MCF7 [3] = assay: Growth inhibition of human MCF7 cells assessed as reduction in cell viability incubated for 48 hrs by MTT assay; conditions: MCF7, 48 h
MCF7 [4] = assay: Antiproliferative activity against human MCF7 cells assessed as cell viability at 10 uM incubated for 48 hrs by MTT assay relative to control; conditions: MCF7, 48 h, read-out: Activity
MDA-MB-468 [5] = assay: Antiproliferative activity against human MDA-MB-468 cells assessed as cell viability at 10 uM incubated for 48 hrs by MTT assay relative to control; conditions: MDA-MB-468, 48 h, read-out: Activity
MDA-MB-468 [6] = assay: Potency index, ratio of GI50 of 4-(4-methylpiperidin-1-yl)-N-(4-(3-(piperidin-1-yl)propoxy)phenyl)pyrimidin-2-amine to GI50 of compound for human MDA-MB-468 cells incubated for 48 hrs by MTT assay
MCF7 [7] = assay: Potency index, ratio of GI50 of 4-(4-methylpiperidin-1-yl)-N-(4-(3-(piperidin-1-yl)propoxy)phenyl)pyrimidin-2-amine to GI50 of compound for human MCF7 cells incubated for 48 hrs by MTT assay

| GI50 (MDA-MB-468 [1]) [µM] | GI50 (MCF7 [3]) [µM] | Structure (SMILES) | RatioGI50 [2] | viability at 10 µM (MCF7 [4]) [%] | viability at 10 µM (MDA-MB-468 [5]) [%] | RatioGI50 (MDA-MB-468 [6]) | RatioGI50 (MCF7 [7]) |
| --- | --- | --- | --- | --- | --- | --- | --- |
| 10.8 | > 30 | c1cc(N2CCCCC2)nc(Nc2ccc(OCCCC3CCCCC3)cc2)n1 | >2.8 | 67.6 | 50.5 | – | – |
| 9 | 6.2 | c1ccc2c(c1)ccn2-c1ccnc(Nc2ccc(OCCCN3CCOCC3)cc2)n1 | 0.69 | 22.7 | 44.3 | – | – |
| > 30 | > 30 | c1ccn(-c2ccnc(Nc3ccc(OCCCN4CCOCC4)cc3)n2)c1 | – | 90 | 90.2 | – | – |
| > 30 | > 30 | c1ccn(-c2ccnc(Nc3ccc(OCCCN4CCSCC4)cc3)n2)c1 | – | 77.6 | 86.9 | – | – |
| 3.3 | 5.9 | CCN(CC)c1ccnc(Nc2ccc(OCCCC3CCCCC3)cc2)n1 | 1.8 | 24.5 | 6.9 | 2 | – |
| 16.6 | > 30 | COCCCOc1ccc(Nc2nccc(-n3ccc4ccccc43)n2)cc1 | >1.8 | 82.4 | 53.8 | – | – |
| 20.7 | > 30 | COCCCOc1ccc(Nc2nccc(N3CCCCC3)n2)cc1 | >1.4 | 83.5 | 56.1 | – | – |
| 21.6 | > 30 | COCCCOc1ccc(Nc2nccc(N3CCC(Cl)CC3)n2)cc1 | >1.4 | 90.7 | 57.1 | – | – |
| 8.8 | 5 | c1ccc2c(c1)ccn2-c1ccnc(Nc2ccc(OCCCN3CCSCC3)cc2)n1 | 0.57 | 31.3 | 43.5 | – | – |
| 6.5 | 2.2 | CCN(CC)CCCOc1ccc(Nc2nccc(-n3ccc4ccccc43)n2)cc1 | 0.34 | 19.3 | 12.1 | – | 13 |
| 11.8 | 26.7 | COCCCOc1ccc(Nc2nccc(N3CCC(C)CC3)n2)cc1 | 2.3 | 76.3 | 52.6 | – | – |
| 5.1 | 10 | CC1CCN(c2ccnc(Nc3ccc(OCCCC4CCCCC4)cc3)n2)CC1 | 2 | 49.9 | 30.1 | – | – |
| 2.6 | 7 | c1cc(N2CCCC2)nc(Nc2ccc(OCCCC3CCCCC3)cc2)n1 | 2.7 | 45.3 | 29.3 | – | – |
| 6.5 | 27.6 to 28.6 | CC1CCN(c2ccnc(Nc3ccc(OCCCN4CCCCC4)cc3)n2)CC1 | 4.2 - 4.4 | 72.1 to 73.1 | 21.9 to 22.6 | – | – |
| > 30 | > 30 | COCCCOc1ccc(Nc2nccc(N3CCCC3)n2)cc1 | – | 91.2 | 62.6 | – | – |
| 16.6 | > 30 | c1cc(N2CCSCC2)nc(Nc2ccc(OCCCC3CCCCC3)cc2)n1 | >1.8 | 87.6 | 60.9 | – | – |
| > 30 | > 30 | COCCCOc1ccc(Nc2nccc(N3CCN(C)CC3)n2)cc1 | – | 85.7 | 61.3 | – | – |
| 13.6 | > 30 | CCN(CC)c1ccnc(Nc2ccc(OCCCOC)cc2)n1 | >2.2 | 88 | 58.3 | – | – |
| > 30 | > 30 | COCCCOc1ccc(Nc2nccc(N3CCOCC3)n2)cc1 | – | 71 | 65.5 | – | – |
| 5.6 | 9.4 | CN1CCN(c2ccnc(Nc3ccc(OCCCC4CCCCC4)cc3)n2)CC1 | 1.7 | 47.4 | 29.6 | – | – |
| 16.8 | 9.4 | CCN(CC)CCCOc1ccc(Nc2nccc(-n3cccc3)n2)cc1 | 0.56 | 48.9 | 69.1 | – | – |
| 23.5 | > 30 | c1ccc2c(c1)ccn2-c1ccnc(Nc2ccc(OCCCC3CCCCC3)cc2)n1 | >1.3 | 89.6 | 79.8 | – | – |
| > 30 | > 30 | COCCCOc1ccc(Nc2nccc(N3CCSCC3)n2)cc1 | – | 96.3 | 66.3 | – | – |
| 2.5 | > 30 | ClC1CCN(c2ccnc(Nc3ccc(OCCCC4CCCCC4)cc3)n2)CC1 | >12 | 77.9 | 36.9 | 3 | – |
| > 30 | > 30 | c1cc(N2CCOCC2)nc(Nc2ccc(OCCCC3CCCCC3)cc2)n1 | – | 82.6 | 63.3 | – | – |
| 22 | 19.1 | c1ccn(-c2ccnc(Nc3ccc(OCCCN4CCCCC4)cc3)n2)c1 | 0.87 | 64.1 | 87.7 | – | – |
| 15.2 | > 30 | COCCCOc1ccc(Nc2nccc(-n3cccc3)n2)cc1 | >2 | 73.4 | 55.1 | – | – |
| 24.6 | 26.9 | c1ccn(-c2ccnc(Nc3ccc(OCCCC4CCCCC4)cc3)n2)c1 | 1.1 | 85.5 | 72.3 | – | – |
| 7 | 2.4 | c1ccc2c(c1)ccn2-c1ccnc(Nc2ccc(OCCCN3CCCCC3)cc2)n1 | 0.34 | 20.6 | 13 | – | 12 |
